Test results as given in PubChem BioAssay AID330 (DTP/NCI, 2004).
Values joined by “and” are separate entries in the source; they are usually repeats but may differ in a detail not shown here. Equal entries are not always repeated. Toxic doses and inconclusive results are not listed. Rule for the calls: active = survival T/C of 150% or more; inactive = T/C below 125% in these data.

Test system: P388 leukemia ip, CD2F1 mice, survival T/C
Test: NCI In Vivo Anticancer Drug Screen. Data for tumor model P388 Leukemia (intraperitoneal) in CD2F1 (CDF1) mice
Conditions: endpoint: median survival time, higher = longer survival
In short: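 Mice carrying the transplanted tumor received test compound or vehicle. Survival was recorded in each group, and the value is the treated-group measurement divided by that of the vehicle-treated control group.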

[1] = dose: 60.0 mg/kg/injection, schedule: Q01DX005 (ip), vehicle: saline with Tween-80
[2] = dose: 240.0 mg/kg/injection, schedule: Q01DX005 (ip), vehicle: saline with Tween-80
[3] = dose: 50.0 mg/kg/injection, schedule: Q01DX009 (ip), vehicle: Klucel (hydroxypropylcellulose) (HPC)
[4] = dose: 100.0 mg/kg/injection, schedule: Q01DX009 (ip), vehicle: Klucel (hydroxypropylcellulose) (HPC)
[5] = dose: 200.0 mg/kg/injection, schedule: Q01DX009 (ip), vehicle: Klucel (hydroxypropylcellulose) (HPC)
[6] = dose: 25.0 mg/kg/injection, schedule: Q01DX009 (ip), vehicle: saline with Tween-80
[7] = dose: 50.0 mg/kg/injection, schedule: Q01DX009 (ip), vehicle: saline with Tween-80
[8] = dose: 100.0 mg/kg/injection, schedule: Q01DX009 (ip), vehicle: saline with Tween-80
[9] = dose: 100.0 mg/kg/injection, schedule: Q01DX001 (ip), vehicle: saline with Tween-80
[10] = dose: 200.0 mg/kg/injection, schedule: Q01DX001 (ip), vehicle: saline with Tween-80
[11] = dose: 400.0 mg/kg/injection, schedule: Q01DX001 (ip), vehicle: saline with Tween-80
[12] = dose: 100.0 mg/kg/injection, schedule: Q04DX003 (ip), vehicle: saline
[13] = dose: 200.0 mg/kg/injection, schedule: Q04DX003 (ip), vehicle: saline
[14] = dose: 200.0 mg/kg/injection, schedule: Q01DX009 (ip), vehicle: saline with Tween-80
[15] = dose: 12.5 mg/kg/injection, schedule: Q01DX009 (ip), vehicle: saline
[16] = dose: 120.0 mg/kg/injection, schedule: Q01DX005 (ip), vehicle: saline with Tween-80
[17] = dose: 50.0 mg/kg/injection, schedule: Q01DX005 (ip), vehicle: saline
[18] = dose: 100.0 mg/kg/injection, schedule: Q01DX005 (ip), vehicle: saline
[19] = dose: 200.0 mg/kg/injection, schedule: Q01DX005 (ip), vehicle: saline

Measured: T/C

CCCCCCCC[N+](C)(C)CCSCC[N+](C)(C)CCCCCCCC
inactive: dose: 3.13 mg/kg/injection, schedule: Q01DX009 (ip), vehicle: saline with Tween-80 99 % of control | dose: 6.25 mg/kg/injection, schedule: Q01DX009 (ip), vehicle: saline with Tween-80 96 % of control | dose: 12.5 mg/kg/injection, schedule: Q01DX009 (ip), vehicle: saline with Tween-80 114 % of control

COc1cc([C@@H]2c3cc4c(cc3C[C@@H]3COC(=O)C32)OCO4)cc(OC)c1O (some centres undefined)
inactive: [1] 100 % of control and 120 % of control | [2] 107 % of control

C=CC(COC(=O)C(Cl)(Cl)Cl)NC(=O)C(Cl)(Cl)Cl (centres undefined)
inactive: dose: 6.25 mg/kg/injection, schedule: Q01DX005 (ip), vehicle: distilled water + Tween-80 100 % of control | dose: 12.5 mg/kg/injection, schedule: Q01DX005 (ip), vehicle: distilled water + Tween-80 90 % of control | dose: 25.0 mg/kg/injection, schedule: Q01DX005 (ip), vehicle: distilled water + Tween-80 100 % of control | dose: 50.0 mg/kg/injection, schedule: Q01DX005 (ip), vehicle: distilled water + Tween-80 100 % of control | dose: 100.0 mg/kg/injection, schedule: Q01DX005 (ip), vehicle: distilled water + Tween-80 95 % of control

O=S(=O)(c1ccc(NC(=S)N2CCOCC2)cc1)N1CCCCC1
inactive: [3] 100 % of control | [4] 96 % of control | [5] 97 % of control

CCCCOP(=O)(CCCC)OCCCC.CCCCOP(=O)(CCCC)OCCCC.CCCCOP(=O)(CCCC)OCCCC.CCCCOP(=O)(CCCC)OCCCC.O.O.[Co+2].[O-][Cl+3]([O-])([O-])O
inactive: [6] 87 % of control | [7] 100 % of control and 104 % of control | [8] 116 % of control

COc1ccc(/C=C/C(CCN(C)C)=N/NC(=S)Nc2ccc(Cl)cc2)cc1
inactive: [9] 89 % of control | [10] 90 % of control | [11] 90 % of control

C1CCCC2(CC1)OCCO2
inactive: [12] 101 % of control | [13] 97 % of control | dose: 400.0 mg/kg/injection, schedule: Q04DX003 (ip), vehicle: saline 98 % of control

O=C(NN=C1c2ccccc2-c2ccccc21)Nc1ccccc1
inactive: [7] 95 % of control | [8] 96 % of control | [14] 96 % of control

COc1cc(NCCCCCCNC(C)C)c2nccc(C)c2c1
inactive: dose: 3.13 mg/kg/injection, schedule: Q01DX009 (ip), vehicle: saline 91 % of control | dose: 6.25 mg/kg/injection, schedule: Q01DX009 (ip), vehicle: saline 99 % of control | [15] 99 % of control

CCC(c1ccc(OC)cc1)C(NCC(=O)N/N=C1\C[C@@H]2[C@H](CC[C@]3(C)[C@@H](O)CC[C@@H]23)c2c(C)cc(O)cc21)c1ccc(OC)cc1 (some centres undefined)
inactive: [9] 106 % of control | [10] 107 % of control | [11] 101 % of control

Cc1ccc(S(=O)(=O)Oc2ccc3c(/C=C/[N+](=O)[O-])cn(C)c3c2)cc1
inactive: dose: 50.0 mg/kg/injection, schedule: Q01DX001 (ip), vehicle: Klucel (hydroxypropylcellulose) (HPC) 90 % of control | dose: 100.0 mg/kg/injection, schedule: Q01DX001 (ip), vehicle: Klucel (hydroxypropylcellulose) (HPC) 86 % of control | dose: 200.0 mg/kg/injection, schedule: Q01DX001 (ip), vehicle: Klucel (hydroxypropylcellulose) (HPC) 101 % of control

O=C(O)c1ccccc1NC(=S)Nc1ccccc1C(F)(F)F
inactive: [3] 100 % of control | [4] 96 % of control | [5] 105 % of control

COc1cc(C(c2cc3c(cc2OC(C)=O)OCO3)C(C)C(C)=O)cc(OC)c1OC (centres undefined)
inactive: [1] 102 % of control | [16] 108 % of control | [2] 111 % of control

CC12COC(=O)CC1CCC1C2CCC2(C)C1CCC2(C)O (centres undefined)
inactive: dose: 100.0 mg/kg/injection, schedule: Q04DX003 (ip), vehicle: saline with Tween-80 95 % of control | dose: 200.0 mg/kg/injection, schedule: Q04DX003 (ip), vehicle: saline with Tween-80 104 % of control

CCCOCCOCCOC(C)Oc1ccc(OC)cc1 (centres undefined)
inactive: [1] 105 % of control | [16] 104 % of control | [2] 104 % of control

C/C=C/C(/C=C/C)(C(=O)OCCN(CC)CC)C(/C=C/C)(/C=C/C)C(=O)OCCN(CC)CC
inactive: [17] 101 % of control | [18] 101 % of control | [19] 97 % of control

O=C(c1cc2ccccc2o1)N1CCN(Cc2ccccc2)CC1
inactive: [3] 102 % of control | [4] 101 % of control | [5] 109 % of control

CC(C)C1OCN2CCCCC12 (centres undefined)
inactive: [17] 105 % of control | [18] 108 % of control | [19] 116 % of control

CC(=O)OCC12C(=O)CC(C)C3(CC(c4ccoc4)OC3=O)C1CCC(=O)C2(O)CCl (centres undefined)
inactive: dose: 0.75 mg/kg/injection, schedule: Q01DX005 (ip), vehicle: saline + alcohol 96 % of control | dose: 1.5 mg/kg/injection, schedule: Q01DX005 (ip), vehicle: saline + alcohol 106 % of control | dose: 3.0 mg/kg/injection, schedule: Q01DX005 (ip), vehicle: saline + alcohol 103 % of control | dose: 6.0 mg/kg/injection, schedule: Q01DX005 (ip), vehicle: saline + alcohol 108 % of control | dose: 12.0 mg/kg/injection, schedule: Q01DX005 (ip), vehicle: saline + alcohol 106 % of control | dose: 12.5 mg/kg/injection, schedule: Q01DX005 (ip), vehicle: saline + Tween-80 + alcohol 90 % of control | dose: 25.0 mg/kg/injection, schedule: Q01DX005 (ip), vehicle: saline + Tween-80 + alcohol 90 % of control | dose: 50.0 mg/kg/injection, schedule: Q01DX005 (ip), vehicle: saline + Tween-80 + alcohol 93 % of control | dose: 150.0 mg/kg/injection, schedule: Q01DX005 (ip), vehicle: saline + Tween-80 + alcohol 100 % of control

Oc1ccc(O)c(Cl)c1Cl
inactive: [15] 105 % of control | dose: 25.0 mg/kg/injection, schedule: Q01DX009 (ip), vehicle: saline 98 % of control | dose: 25.0 mg/kg/injection, schedule: Q04DX003 (ip), vehicle: saline 106 % of control and 113 % of control | dose: 50.0 mg/kg/injection, schedule: Q01DX009 (ip), vehicle: saline 96 % of control | dose: 50.0 mg/kg/injection, schedule: Q04DX003 (ip), vehicle: saline 100 % of control and 120 % of control | dose: 100.0 mg/kg/injection, schedule: Q01DX009 (ip), vehicle: saline 104 % of control | dose: 100.0 mg/kg/injection, schedule: Q04DX002 (ip), vehicle: saline + alcohol 108 % of control | [12] 101 % of control and 118 % of control | dose: 200.0 mg/kg/injection, schedule: Q04DX002 (ip), vehicle: saline + alcohol 108 % of control | [13] 105 % of control | dose: 400.0 mg/kg/injection, schedule: Q04DX002 (ip), vehicle: saline + alcohol 99 % of control

O=C(NCCNCCO)c1cccc(Nc2cc(O)c(O)c3ccccc23)c1
inactive: dose: 50.0 mg/kg/injection, schedule: Q01DX005 (ip), vehicle: saline with Tween-80 108 % of control | dose: 100.0 mg/kg/injection, schedule: Q01DX005 (ip), vehicle: saline with Tween-80 100 % of control | dose: 200.0 mg/kg/injection, schedule: Q01DX005 (ip), vehicle: saline with Tween-80 97 % of control

O=C1C2=C(Nc3cc(Cl)ccc3N2)OC1c1ccccc1Cl (centres undefined)
inactive: dose: 60.0 mg/kg/injection, schedule: Q01DX005 (ip), vehicle: Klucel (hydroxypropylcellulose) (HPC) 95 % of control | dose: 120.0 mg/kg/injection, schedule: Q01DX005 (ip), vehicle: Klucel (hydroxypropylcellulose) (HPC) 94 % of control | dose: 240.0 mg/kg/injection, schedule: Q01DX005 (ip), vehicle: Klucel (hydroxypropylcellulose) (HPC) 104 % of control

Cc1ccc(C(=O)/C=C/c2ccccc2)cc1
inactive: dose: 12.5 mg/kg/injection, schedule: Q01DX009 (ip), vehicle: water 94 % of control | [6] 92 % of control | dose: 25.0 mg/kg/injection, schedule: Q01DX009 (ip), vehicle: water 95 % of control | [7] 108 % of control | dose: 50.0 mg/kg/injection, schedule: Q01DX009 (ip), vehicle: water 99 % of control | [8] 102 % of control | dose: 100.0 mg/kg/injection, schedule: Q01DX009 (ip), vehicle: water 104 % of control | [14] 109 % of control | dose: 200.0 mg/kg/injection, schedule: Q01DX009 (ip), vehicle: water 96 % of control
